Assay results taken from patent US9353152B2, “Induction of the mitochondrial permeability transition” (NewSouth Innovations Pty Limited, priority 2002, dated 2016).
Entries after “also recorded” stand apart in the source; their conditions may differ. Read-outs that look alike come from different tables or passages of the source. Residues, ends and D or L forms follow the SMILES beside them. *: point of attachment. X2 = O=C(C*)Nc1ccc([As](O)O)cc1; X1 = O=C(C*)Nc1ccccc1[As](O)O

Experiments:
MPTP [1] = target: T1, MPTP (Rattus norvegicus, UniProt Q09073); experiment: Mitochondria swelling assay (MPT induction, decrease in light scattering at 520 nm); type: biochemical; details: for blocking of the effect of GSAO on pore opening: 100 μM GSAO with 3 mM Mg^2+, 100 μM EGTA, 10 μM BKA, 5 μM CsA or 8 mM ADP; for swelling of isolated rat liver mitochondria: GSAO 25-200 μM, GSAA, GSCA 100 μM, 60 min
T1 construct: Mitochondria were isolated from the livers of ˜250 g male Wistar rats; from tissue; host or cells: rat liver mitochondria (male Wistar rats)
T1 sequence (Q09073 2-298 limits assumed): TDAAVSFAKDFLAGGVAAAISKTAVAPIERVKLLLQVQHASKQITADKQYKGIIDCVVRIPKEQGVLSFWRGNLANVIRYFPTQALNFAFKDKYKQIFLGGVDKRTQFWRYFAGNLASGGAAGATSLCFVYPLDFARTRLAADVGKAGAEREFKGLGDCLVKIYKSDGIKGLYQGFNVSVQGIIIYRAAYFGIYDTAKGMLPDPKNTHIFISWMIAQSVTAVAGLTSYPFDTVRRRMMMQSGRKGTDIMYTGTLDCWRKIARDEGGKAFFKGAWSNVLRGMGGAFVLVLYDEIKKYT

[2] = target: T2, mitochondrial permeability transition pore (Rattus norvegicus, UniProt Q09073); type: biochemical
T2 construct: Mitochondria were isolated from the livers of ˜250 g male Wistar rats; from tissue; host or cells: rat liver mitochondria (male Wistar rats)
T2 sequence (Q09073 2-298 limits assumed): T1 sequence (Q09073 2-298 limits assumed)

MPTP [3] = target: T1, MPTP; type: biochemical
BAE cells [4] = system: BAE cells
BAE cells [5] = experiment: cells; details: Bos taurus, read-out: IC50 (μM)*
BAE cells [6] = experiment: Cell viability assay, attached cells (methylene blue), proliferating or growth-quiescent cells; type: cell-based, bovine
Method: BAE or HMEC-1 cells were seeded at a density of 10^4 cells per cell into 96 well plates and allowed to adhere overnight and then treated as indicated.

BAE cells [7] = type: cell-based, bovine
CAM angiogenesis = experiment: Chick chorioallantoic membrane (CAM) angiogenesis assay; type: in vivo; details: 5, 10 or 50 μg per pellet, 48 h
Method: Fertilised 3 day-old white Leghorn eggs (Spafas, Norwich, Conn.) were cracked, the embryos with intact yolks placed in 20×100 mm petri dishes and incubated for 3 days at 37° C. and 3% CO2 (Folkman, 1985). Methylcellulose (Fisher Scientific, Fair Lawn, N.J.) discs containing 5, 10 or 50 μg of either GSAA or GSAO were then applied to the CAM of individual embryos and incubated for 48 h at 37° C. and 3% CO2. The discs were made by desiccation of GSAA or GSAO in 10 μl of 0.45% methycellulose on teflon rods. The CAMs were observed using a stereomicroscope and scored for no obvious affect or inhibition of CAM angiogenesis as defined by avascular zones. On some occasions CAM blood vessels were injected with India ink and photographed.

BxPC-3 tumours = experiment: Primary tumour growth assay; type: in vivo, SCID mice; details: 10 mg/kg/day s.c., all experiments (BxPC-3, HT1080, LLC)
Method: (§1) Female 7 to 9 week old SCID or C57Bl6/J mice were used (Massachusetts General Hospital, Boston, Mass.). Mice were held in groups of 3 to 5 at a 12 hour day and night cycle and were given animal chow and water ad libidum. SCID or C57Bl6/J mice were anaesthetised by inhalation of isoflurane, the dorsal skin shaved and cleaned with ethanol, and a suspension of 2.5×10^6 BxPC-3, HT1080 or LLC cells in 0.2 mL of PBS, or saline for LLC cells, was injected S.C. in the proximal midline. LLC cells were prepared according to O'Reilly et al. (1997). Tumour volume was calculated using the relationship, a·b^2·0.52, where a is the longest and b the shortest diameter.

[8] = Tolerability in tumour-bearing mice; type: in vivo, SCID or C57Bl6/J mice
Method: as §1

Structure (SMILES) | MPTP Swelling Rate Increase/GSAO* Mean (MPTP [3]) | Fold Increase (BAE cells [4]) | IC50 (BAE cells [4]; read-out: IC50 (μM)*) | also measured
Nc1ncnc2c1ncn2[C@@H]1O[C@H](COP(=O)(O)OP(=O)(O)O)[C@@H](O)[C@H]1O [ADP] |  |  |  | blocking of the effect of GSAO on pore opening (MPTP [1]): blocked; blocking of the effect of o-GSAO on pore opening [2]: blocked
CO[C@H](C/C=C\C=C\CC/C=C/C[C@H](C)/C=C/C(=C\C(=O)O)CC(=O)O)/C(C)=C\C=C(/C)C(=O)O [BKA, Bonkrekic acid] |  |  |  | blocking of the effect of GSAO on pore opening (MPTP [1]): blocked
O=C(O)CCC(NC(=O)NC(CSCC(=O)Nc1ccc([As](O)O)cc1)C(=O)O)C(=O)O (stereo not drawn) [Compound 3, retro-HO-Cys-(CH2CONHC6H4-p-As{OH}2)-carbonyl-Glu-OH] | 2.4 | 0.07 | 122 µM | 
N=C(N)NCCC[C@H](N)C(=O)NCC(=O)N[C@@H](CC(=O)O)C(=O)N[C@@H](CSCC(=O)Nc1ccc([As](O)O)cc1)C(=O)O [Compound 6, H-Arg-Gly-Asp-Cys(CH2CONHC6H4-p-As{OH}2)—OH] (H-RGDC(X2)-OH) | 4.5 | 0.45 | 18.2 µM | 
NCC(=O)NCC(=O)NC(CSCC(=O)Nc1ccc([As](O)O)cc1)C(=O)O (stereo not drawn) [Compound 7, H-Gly-Gly-Cys(CH2CONHC6H4-p-As{OH}2)—OH] | 2.2 | 0.44 |  | IC50 (BAE cells [5]): 19 µM
CC(C)C(N)C(=O)NC(C(=O)NC(CSCC(=O)Nc1ccc([As](O)O)cc1)C(=O)NCC(=O)O)C(C)O (stereo not drawn) [Compound 8, H-Val-Thr-Cys(CH2CONHC6H4-p-As{OH}2)-Gly-OH] (H-VTC(X2)G-OH; configuration not given here) | 2.1 | 0.95 |  | IC50 (BAE cells [5]): 8.8 µM
NC(=O)CCC(NC(=O)C(Cc1ccccc1)NC(=O)C(Cc1ccc(O)cc1)NC(=O)C(N)CSCC(=O)Nc1ccc([As](O)O)cc1)C(=O)NC(CC(N)=O)C(=O)NC(CSCC(=O)Nc1ccc([As](O)O)cc1)C(=O)O (stereo not drawn) [Compound 9, H-Cys-(CH2CONHC6H4-p-As{OH}2)-Tyr-Phe-Gln-Asn-Cys-(CH2CONHC6H4-p-As{OH}2)—OH] (H-C(X2)YFQNC(X2)-OH; configuration not given here) |  | 0.64 |  | IC50 (BAE cells [4]; 72 h): 12.9 µM
O=C(CSCCCS(=O)(=O)O)Nc1ccc([As](O)O)cc1 [Compound 10, 3-S—(CH2CONHC6H4-p-As{OH}2)-1-propanesulfonic acid] | 2.0 | 0.21 | 39 µM | 
O=C(O)CCSCC(=O)Nc1ccc([As](O)O)cc1 [Compound 11, 3-S—(CH2CONHC6H4-p-As{OH}2)-1-propionic acid] | 1.3 | 0.05 | 170 µM | 
O=C(O)CC(SCC(=O)Nc1ccc([As](O)O)cc1)C(=O)O (stereo not drawn) [Compound 13, 1-S—(CH2CONHC6H4-p-As{OH}2)-mercaptosuccinic acid] | 1.6 | 0.19 | 43.3 µM | 
O=C(CS[C@@H]1O[C@H](CO)[C@@H](O)[C@H](O)[C@H]1O)Nc1ccc([As](O)O)cc1 [Compound 14, 1-S—(CH2CONHC6H4-p-As{OH}2)-β-D-glucose] | 1.1 | 0.08 | 106 µM | 
O=C(O)Cn1nnnc1SCC(=O)Nc1ccc([As](O)O)cc1 [Compound 21, 5-S—(CH2CONHC6H4-p-As{OH}2)-1-tetrazolacetic acid] | 2.8 | 0.16 |  | IC50 (BAE cells [5]): 51.3 µM
NCC(=O)NCC(=O)N[C@@H](CSCC(=O)Nc1ccccc1[As](O)O)C(=O)O [Compound 22, H-Gly-Gly-Cys(CH2CONHC6H4-o-As{OH}2)—OH] | 6.9 | 46.9 | 0.18 µM | times more active than the corresponding p-arsenoxide analogue (BAE cells [4]): approximately 106 times
CC(C)C(N)C(=O)NC(C(=O)NC(CSCC(=O)Nc1ccccc1[As](O)O)C(=O)NCC(=O)O)C(C)O (stereo not drawn) [Compound 23, H-Val-Thr-Cys(CH2CONHC6H4-o-As{OH}2)-Gly-OH] (H-VTC(X1)G-OH; configuration not given here) | 5.4 | 19.8 | 0.42 µM | times more active than the corresponding p-arsenoxide analogue (BAE cells [4]): approximately 20 times
O=C(O)CN(CCOCCOCCN(CC(=O)O)CC(=O)O)CC(=O)O [EGTA, ethylene glycol-bis(beta-aminoethyl ether)-N,N,N′N′-tetraacetic acid] |  |  |  | blocking of the effect of GSAO on pore opening (MPTP [1]): blocked; blocking of GSAO-dependent swelling [2]: blocked
N[C@@H](CCC(=O)N[C@@H](CSCC(=O)Nc1ccc([As](=O)(O)O)cc1)C(=O)NCC(=O)O)C(=O)O [GSAA, 4-(N—((S-glutathionyl)acetyl)amino)-benzenearsonic acid, reference compound] |  |  |  | swelling of isolated rat liver mitochondria (MPTP [1]): without effect; effect on the viability of proliferating BAE cells (BAE cells [6]): no significant effect; effect on O2^− or H2O2 levels (BAE cells [7]): no effect; inhibition of CAM angiogenesis (avascular zones) (CAM angiogenesis): did not inhibit CAM angiogenesis; also recorded: no affects; inhibition of the rate of tumour growth compared to vehicle alone (BxPC-3 tumours): < 20%; adverse affects of administration ([8]; 10 mg/kg/day s.c.): no apparent adverse affects; morphological changes in the heart, lungs, liver, kidneys, and spleen ([8]; 10 mg/kg/day s.c.): no morphological changes; average mice weights over the course of the experiments ([8]; GSAO versus GSAA treatment groups): the same
N[C@@H](CCC(=O)N[C@@H](CSCC(=O)Nc1ccc(C(=O)O)cc1)C(=O)NCC(=O)O)C(=O)O [GSCA, 4-(N—((S-glutathionyl)acetyl)amino)benzoic acid] |  |  |  | swelling of isolated rat liver mitochondria (MPTP [1]): without effect; effect on the viability of proliferating BAE cells (BAE cells [6]; concentrations up to 1.0 mM): no significant effect
[Mg+2] [Mg^2+] |  |  |  | blocking of the effect of GSAO on pore opening (MPTP [1]): blocked; blocking of GSAO-dependent swelling ([2]; FIG. 18 as printed): blocked
